Values of other authors as cited in US8263630B2, “1,2,3-triazoles as 11-beta hydroxysteroid dehydrogenase type I inhibitors” (Bristol-Myers Squibb Company, priority 2008, dated 2012).

Molecular target: T1, 11beta-HSD1 (Homo sapiens, UniProt P28845)
T1 construct: host or cells: human patients (liver), in vivo
Conditions: mildly overweight individuals with type 2 diabetes; seven day treatment; versus placebo

T1 sequence (P28845 whole entry): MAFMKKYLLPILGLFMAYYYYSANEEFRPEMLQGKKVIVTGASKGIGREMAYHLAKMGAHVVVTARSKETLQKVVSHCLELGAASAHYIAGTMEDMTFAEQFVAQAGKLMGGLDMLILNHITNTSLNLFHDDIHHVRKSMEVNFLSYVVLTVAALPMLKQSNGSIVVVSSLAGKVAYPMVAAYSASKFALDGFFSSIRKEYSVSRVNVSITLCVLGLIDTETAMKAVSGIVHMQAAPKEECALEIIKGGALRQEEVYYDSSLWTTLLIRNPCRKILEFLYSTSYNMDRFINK

- hepatic glucose production: decrease in hepatic glucose production
SMILES: CC1(C)[C@@H](OC(=O)CCC(=O)O)CC[C@]2(C)[C@H]3C(=O)C=C4[C@@H]5C[C@@](C)(C(=O)O)CC[C@]5(C)CC[C@@]4(C)[C@]3(C)CC[C@@H]12 [carbenoxolone]
